Laboratory results: patent publication US10106778B2, “Selective targeting of cancer stem cells” (Whitehead Institute for Biomedical Research, priority 2012, dated 2018)

Experiments:
[1] = tested on: NAMEC-Tom-Ras and HMLE-GFP-Ras cells; assay: Co-mixed NAMEC-Tom-Ras (CSC-enriched) and HMLE-GFP-Ras (CSC-depleted) cells, kinase inhibition, FACS; assay type: cell-based, human; conditions: dose response, co-mixed cells
Procedure: (§1) Kinase inhibitors and other chemical compounds were obtained from various sources listed below. These were dissolved or diluted in DMSO. To set up the screen, 75,000 NAMEC-Tom and 15,000 HMLE-GFP cells were seeded into each well of a 6-well tissue culture plate. The following day, spent media was replaced with 3 ml of fresh media. Inhibitors were added to achieve the desired range of concentrations. For control treatment, DMSO was added. Fresh media containing inhibitors were replaced daily during the six day period. For analysis, cells were trypsinized with 1 ml 0.15% trypsin, diluted with 1 ml serum-containing media and fixed with 1 ml of 4% paraformaldehyde. FACS analysis was performed to analyze the proportion of surviving cells relative to DMSO-treated control for NAMEC-Tom or HMLE-GFP cells. To test the effects of these inhibitors on CSCs and non-CSCs, NAMEC-Ras-Tom and […] were used in similar co-mixed experiments.
as §1, with “experiments. To assess the fraction of cells undergoing apoptosis, cells were exposure to agents for three days without fresh media and then analyzed with Annexin V-APC (BD Biosciences).” for “experiments.”
Having determined that NAMEC-Ras cells were enriched for CSCs, we mixed NAMEC-Ras cells labeled with tdTomato (NAMEC-Tom-Ras) and HMLE-Ras cells labeled with GFP (HMLE-GFP-Ras) and re-tested the effects of kinase inhibition as described above. […] In addition, these NAMEC-Tom-Ras cells were more resistant to paclitaxel (11.3 fold) and staurosporine (32.8 fold) than the corresponding HMLE-GFP-Ras cells used as controls (FIG. 3C).

[2] = tested on: p-PKCα^S497 and p-PKCα^T638; assay: Western blot of PKCα phosphorylation in NAMECs; assay type: cell-based, human
Procedure: (§2) To obtain protein extracts, cells were scraped from culture dishes in chilled PBS, centrifuged at 450×g for 4 min at 4° C., washed again in PBS, and incubated for 20 min in ice cold lysis buffer containing freshly added protease inhibitors (0.5 mM phenylmethylsulfonyl fluoride, 10 μg/ml leupeptin, 2 μg/ml aprotonin). Lysates were cleared by centrifugation at 12,100×g, 4° C. for 10 min and the supernatant was snap frozen in liquid nitrogen. Protein concentrations were determined using Bradford Dye (Bio-Rad). 30 μg total protein was separated by SDS-PAGE on NuPAge gels (Invitrogen), and transferred to Hybond-P PVDF membrane (GE Healthcare). The membrane was probed with specific primary antibodies and antibody-protein complex detected by HRP-conjugated antibodies and ECL-Plus (Amersham Biosciences).
We subsequently sought to determine whether PKCα activation was directly dependent upon PDGFR-PLCγ. Exposure of NAMECs to a PLCγ inhibitor (U73122) reduced active p-PKCα^S497 and p-PKCα^T638 by 1.3 and 3.1-fold respectively within 30 min, and 6.3 and 4.2-fold respectively by 60 min (FIG. 13C); total PKCα level was unchanged (FIG. 13C). The inhibition of PDGFR in NAMECs, similarly, led to a loss of PKCα phosphorylation (p-PKCα^S497: 2.8 fold, p-PKCα^T638: 5.9 fold), as illustrated once again by the loss of active p-PKCα^S497 and p-PKCα^T638 within 30 min, while total PKCα remained constant (FIG. 13D).

p-FRA1^S265 = assay: Western blot of FRA1 phosphorylation in NAMECs; assay type: cell-based, human; conditions: for effect on phosphorylation of FRA1: applied to NAMECs for 30 min
Procedure: as §2
FRA1 is a member of the Fos family of transcription factors, which is also comprised of c-Fos, FosB and Fra2. Together with the Jun family of transcription factors composed of c-Jun, JunB and JunD, individual members of the Fos and Jun family associate with one another to form heterodimeric activator protein-1 (AP-1) complexes that bind and transcriptionally regulate target gene expression when phosphorylated (Eferl and Wagner, 2003).
We assessed whether the observed increased p-FRA1 activity in the mesenchymal cells could be further augmented by elevated ERK signaling during EMT. Accordingly, inhibition of ERK1/2 phosphorylation with a MEK inhibitor was able to decrease p-FRA1^S265 levels by 65% but not the levels of total FRA1 or p-c-Jun (FIG. 5G), confirming that ERK1/2 signaling promoted p-FRA1 activity.

[3] = tested on: p-B-Raf, p-c-Raf, p-MEK1/2 and p-ERK1/2; assay: Western blot of MAPK/ERK signaling in NAMECs; assay type: cell-based, human; conditions: 30 min
Procedure: as §2
We assessed whether mesenchymal cells contained higher Ras expression or activated Ras. […] We assessed whether enhanced ERK signaling in the mesenchymal cell state was primarily mediated through the activated PDGFR and PKCα signaling cascade, rather than through activation via a Ras-Raf pathway. To test this, we exposed NAMECs to PKCα-specific inhibitors for 30 min. This reduced p-B-Raf and p-c-Raf expression, and led to the loss of p-MEK1/2 and p-ERK1/2 (FIG. 5F). […] Therefore, the enhanced activity of ERK signaling during EMT was, in part, conferred by signaling through PDGFR and PKCα.

[4] = tested on: NAMEC-Tom and HMLE-GFP cells; assay: Kinase inhibitor screen: co-mixed NAMEC-Tom and HMLE-GFP cells, six days of inhibitor, FACS; assay type: cell-based, human; conditions: six days of inhibitor treatment, FACS relative to DMSO
Procedure: as §1
as §1, with “experiments. To assess the fraction of cells undergoing apoptosis, cells were exposure to agents for three days without fresh media and then analyzed with Annexin V-APC (BD Biosciences).” for “experiments.”
We undertook to identify kinase inhibitors that selectively targeted mesenchymal-like cells including those with stem cell properties. To do so, we established a screen that measured the ability of candidate inhibitors to preferentially deplete NAMECs but not parental HMLE cells from cell cultures. Thus, we labeled NAMECs with the tdTomato red fluorescent protein (NAMEC-Tom) and the HMLE cells with the GFP green fluorescent protein (HMLE-GFP); we then attempted to reconstitute certain stem cell and non-stem cell interactions that might operate in vivo by mixing the two cell populations in 6-well adherent tissue culture plates. One day later, we challenged these cultures with a variety of kinase inhibitors (FIG. 2A).
The robustness of this screen, designed to identify mesenchymal cell-specific inhibitors, was enhanced by seeding NAMEC-Tom and HMLE-GFP cells in a 5:1 ratio. While NAMEC-Tom cells, like others that have passed through an EMT, proliferated marginally more slowly than their epithelial counterparts in culture, their initial advantage in seeding density was compensated over the course of the six day-long assays by the more rapid proliferation of the HMLE-GFP cells (FIG. 11). After six days of treatment, the relative proportions of NAMEC-Tom and HMLE-GFP cells were quantified with fluorescent-activated cell sorting (FACS) to determine the selective effects, if any, of these various inhibitors (FIG. 2A).

NAMEC-Tom cells = assay: Annexin V apoptosis in co-mixed culture, NAMEC-Tom gate; assay type: cell-based, human; conditions: co-mixed cells treated for three days
Procedure: as §1, with “experiments. To assess the fraction of cells undergoing apoptosis, cells were exposure to agents for three days without fresh media and then analyzed with Annexin V-APC (BD Biosciences).” for “experiments.”
(§3) To assess how PKC inhibitors function in these cell populations, we tested whether they induced apoptosis. Thus, the mixed cell populations described above were treated with one of the inhibitors (Ro-31-8220) for three days and assessed with Annexin V, which marks apoptotic cells. 89% of NAMEC-Tom cells underwent apoptosis in comparison to 22.4% of the HMLE-GFP cells (FIG. 2E).

HMLE-GFP cells = assay: Annexin V apoptosis in co-mixed culture, HMLE-GFP gate; assay type: cell-based, human; conditions: co-mixed cells treated for three days
Procedure: as §1, with “experiments. To assess the fraction of cells undergoing apoptosis, cells were exposure to agents for three days without fresh media and then analyzed with Annexin V-APC (BD Biosciences).” for “experiments.”
as §3

NAMEC-Ras cells = assay: NAMEC-Ras subcutaneous xenograft, treatment from day of implantation; assay type: in vivo
Procedure: All research involving animals complied with protocols approved by the MIT Committee on Animal Care. For subcutaneous injections, cells resuspended in 100111 PBS containing 50% Matrigel were injected into both flanks female NOD-SCID mice except for studies involving the in vivo administration of chemical inhibitors where only one flank was implanted. The tumor incidence and weight were measured between 4 and 12 weeks post-injection.
In order to assess the therapeutic benefits of PKCα and SPHK1/2 inhibitors, NOD-SCID mice were xenografted with 5×10^4 NAMEC-Ras cells and treated for 30 days with a daily intraperitoneal dose of either DMSO control, PKCα Inh (5 mg/kg/d), SPHK1/2 Inh (5 mg/kg/d) or PKCα+SPHK1/2 inhibitors (2.5 mg/kg/d of each).

NAMECs = assay: Cellular plasticity of NAMECs: differentiation by PGE2 blockade and inhibitor sensitivity; assay type: cell-based, human
Description: NAMECs are phenotypically plastic and can transit between the epithelial and mesenchymal cell state. The cells relied on autocrinal PGE2 signaling for maintenance of the mesenchymal state.

p-PLCγ1^Y783 = assay: Western blot of PLCγ1 phosphorylation in NAMECs; assay type: cell-based, human; conditions: 5 μM, within 30 min
Procedure: as §2
(§4) Protein levels of both phospholipase Cγ1 and 2 (PLCγ1 and PLCγ2), which transduce signals from PDGFRα/β to PKCα, were also elevated in these cells by an average of 4.57 and 2.38-fold, respectively (FIG. 4E). To test whether PLCγ is being activated by PDGFR through phosphorylation, NAMECs were treated with PDGFR inhibitors.

p-PLCγ2^Y1217 = assay: Western blot of PLCγ2 phosphorylation in NAMECs; assay type: cell-based, human; conditions: 5 μM, within 30 min
Procedure: as §2, §4

[5] = 5×10^4 cells, daily intraperitoneal 30 days, 5 mg/kg/d (combination 2.5 mg/kg/d of each), after 15 weeks

Structure (SMILES) | which cell type is more sensitive / selected against [1] | effect on PKCα phosphorylation [2] | effect on phosphorylation of FRA1 (p-FRA1^S265) | effect on phospho-proteins of ERK signaling [3] | preferential depletion of NAMEC-Tom or HMLE-GFP cells in co-mixed culture [4] | apoptosis of NAMEC-Tom cells (Annexin V) (NAMEC-Tom cells) [%] | apoptosis of HMLE-GFP cells (Annexin V) (HMLE-GFP cells) [%] | mice that formed tumors (NAMEC-Ras cells; [5]) | tumor weight (NAMEC-Ras cells; [5]) [g] | tolerability in mice (NAMEC-Ras cells; 30 days of treatment followed by eight weeks of observation) | total FRA1 (p-FRA1^S265; within 30 min of treatment) | sensitivity of GW-treated (differentiated) NAMECs (NAMECs; after differentiation with GW627368) | sensitivity of NAMECs relative to parental HMLE cells (NAMECs; undifferentiated NAMECs) | effect on p-PLCγ1^Y783 (p-PLCγ1^Y783) | effect on p-PLCγ2^Y1217 (p-PLCγ2^Y1217)
COc1cc2c(cc1OC)-c1[nH]nc(Nc3cccc(F)c3)c1C2 [PDGFR Inh IV] | NAMEC-Ras-Tom cells were more sensitive | reduced phosphorylation of PKCα | blocked the phosphorylation of FRA1 | downregulation of B-Raf and C-Raf phosphorylation, and dampening ERK signaling | – | – | – | – | – | – | – | – | – | – | –
Cn1cc(C2=C(c3cn(CCCSC(=N)N)c4ccccc34)C(=O)NC2=O)c2ccccc21 [Ro-31-8220] | – | – | blocked the phosphorylation of FRA1 | – | diminished NAMEC-Tom cells relative to HMLE-GFP cells | 89 | 22.4 | four of eight | ~0.16 | well-tolerated in mice and had no adverse effects | unchanged | lost their sensitivity | more sensitive | – | –
COc1cc2ncnc(N3CCN(C(=O)Nc4ccc(Oc5ccccc5)cc4)CC3)c2cc1OC [PDGFR Inh III] | NAMEC-Ras-Tom cells were more sensitive | reduced phosphorylation of PKCα | blocked the phosphorylation of FRA1 | downregulation of B-Raf and C-Raf phosphorylation, and dampening ERK signaling | – | – | – | – | – | – | – | – | – | reduced | reduced
